# Measurements published in the supplement of paper PMC10307832.
# Experiments:
# Experiment in all cases: relative viability (nuclei count vs DMSO), 5 days (fraction); higher = more cells survive
# [1] = compound: CC1=C(C(=NN1)C)CC2=C(C3=C(S2)N(C(=O)N(C3=O)C)CC(C)C)C(=O)N4C[C@@H](CO4)O + Cc1cc(Nc2cc(N3CCN(C)CC3)nc(Sc3ccc(NC(=O)C4CC4)cc3)n2)n[nH]1 [Tozasertib] (partner 0.1 µM)
# How it was run: (§1)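 Each reported value is a median over duplicate plates. It expresses relative viability: treated-well nuclei count divided by vehicle-well nuclei count. Lung cancer cell lines in 1536-well plates were dosed by pin tool a day after seeding, alone with one drug or with a fixed anchor-drug dose plus five library-drug doses (not always all listed) in √10 steps, and nuclei were counted after 5 days.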
# IDH-C35 + Navitoclax = compound: Cc1ccccc1C(C(=O)NC1CCCCC1)N(C(=O)Cn1ccnc1C)c1cccc(F)c1 [IDH-C35] + CC1(C)CCC(c2ccc(Cl)cc2)=C(CN2CCN(c3ccc(C(=O)NS(=O)(=O)c4ccc(N[C@H](CCN5CCOCC5)CSc5ccccc5)c(S(=O)(=O)C(F)(F)F)c4)cc3)CC2)C1 [Navitoclax] (partner 0.5 µM)
# How it was run: as §1
# IDH-C35 + Crizotinib = compound: Cc1ccccc1C(C(=O)NC1CCCCC1)N(C(=O)Cn1ccnc1C)c1cccc(F)c1 [IDH-C35] + C[C@@H](Oc1cc(-c2cnn(C3CCNCC3)c2)cnc1N)c1c(Cl)ccc(F)c1Cl [Crizotinib] (partner 1 µM)
# How it was run: as §1
# IDH-C35 + Pemetrexed = compound: Cc1ccccc1C(C(=O)NC1CCCCC1)N(C(=O)Cn1ccnc1C)c1cccc(F)c1 [IDH-C35] + Nc1nc2[nH]cc(CCc3ccc(C(=O)N[C@@H](CCC(=O)O)C(=O)O)cc3)c2c(=O)[nH]1 [Pemetrexed] (partner 0.2 µM)
# How it was run: as §1
Cell Line,relative viability ([1]; first compound 0.0025 µM),relative viability ([1]; first compound 0.007906 µM),relative viability ([1]; first compound 0.025 µM),relative viability ([1]; first compound 0.07906 µM),relative viability ([1]; first compound 0.25 µM),relative viability (IDH-C35 + Navitoclax; first compound 0.08 µM),relative viability (IDH-C35 + Navitoclax; first compound 0.253 µM),relative viability (IDH-C35 + Navitoclax; first compound 0.8 µM),relative viability (IDH-C35 + Navitoclax; first compound 2.53 µM),relative viability (IDH-C35 + Navitoclax; first compound 8 µM),relative viability (IDH-C35 + Crizotinib; first compound 0.08 µM),relative viability (IDH-C35 + Crizotinib; first compound 0.253 µM),relative viability (IDH-C35 + Crizotinib; first compound 0.8 µM),relative viability (IDH-C35 + Crizotinib; first compound 2.53 µM),relative viability (IDH-C35 + Crizotinib; first compound 8 µM),relative viability (IDH-C35 + Pemetrexed; first compound 0.08 µM),relative viability (IDH-C35 + Pemetrexed; first compound 0.253 µM),relative viability (IDH-C35 + Pemetrexed; first compound 0.8 µM),relative viability (IDH-C35 + Pemetrexed; first compound 2.53 µM),relative viability (IDH-C35 + Pemetrexed; first compound 8 µM)
NCI-H2347,0.584,0.591,0.54,0.522,0.727,0.766,0.765,0.801,0.851,0.742,0.71,0.695,0.713,0.762,0.619,0.424,0.418,0.452,0.417,0.43
PC-14,0.593,0.549,0.525,0.614,0.598,1.11,1.03,0.966,1.04,0.98,0.886,0.845,0.837,0.88,0.835,0.127,0.135,0.152,0.154,0.133
NCI-H1651,0.702,0.802,0.58,0.625,0.767,1.03,1.01,0.972,1.03,1.01,0.848,0.874,0.874,0.919,0.925,0.53,0.615,0.571,0.607,0.641
HARA,0.129,0.125,0.105,0.111,0.112,1.08,1.14,1.14,1.12,1.14,1.02,0.986,0.997,1.09,1.05,0.278,0.239,0.326,0.256,0.254
NCI-H1650,0.482,0.406,0.386,0.503,0.446,1.23,1.21,1.19,1.24,1.17,0.796,0.978,0.965,0.914,0.923,0.334,0.4,0.323,0.428,0.362
LU99A,0.24,0.285,0.279,0.274,0.283,0.702,0.814,0.871,0.925,0.781,0.585,0.612,0.587,0.578,0.539,0.191,0.216,0.173,0.187,0.191
NCI-H1355,0.527,0.437,0.529,0.566,0.623,0.952,0.928,0.934,0.938,0.996,1.08,1.03,1.03,1.01,1.07,1.11,1.02,0.987,1,1
HCC-78,0.415,0.406,0.544,0.453,0.284,0.86,0.762,0.763,0.62,0.656,0.343,0.349,0.342,0.322,0.303,0.918,0.918,0.897,0.912,0.943
HCC-15,0.458,0.519,0.435,0.469,0.448,0.69,0.692,0.708,0.632,0.606,0.854,0.804,0.802,0.814,0.731,0.206,0.235,0.223,0.226,0.227
EKVX,0.398,0.404,0.432,0.394,0.422,1.17,0.911,0.899,1.01,0.897,0.953,0.74,0.688,0.935,1.08,0.443,0.332,0.395,0.369,0.42
NCI-H2087,0.275,0.233,0.281,0.219,0.33,1.13,1.02,0.896,0.867,0.999,0.91,0.898,0.843,0.902,0.841,0.732,0.592,0.678,0.647,0.697
LK-2,0.19,0.224,0.175,0.198,0.182,0.88,0.834,0.866,0.911,0.903,0.223,0.23,0.215,0.209,0.233,0.259,0.322,0.255,0.22,0.202
NCI-H1437,0.399,0.409,0.408,0.409,0.438,1.08,1.07,1.08,1.19,0.975,0.979,0.913,0.907,0.874,0.796,0.35,0.291,0.362,0.299,0.296
COR-L23,0.155,0.163,0.172,0.18,0.163,1.17,0.907,0.977,0.979,1.05,0.634,0.626,0.619,0.673,0.667,0.18,0.205,0.2,0.201,0.173
NCI-H838,0.268,0.25,0.212,0.22,0.242,1.15,1.11,1.19,1.15,1.11,0.834,0.787,0.812,0.77,0.799,0.241,0.248,0.272,0.255,0.235
A-427,0.189,0.188,0.215,0.227,0.237,0.975,0.975,0.904,0.949,0.952,0.907,0.983,0.849,0.891,0.791,0.952,0.981,0.899,1.02,1.04
LCLC-97TM1,0.207,0.277,0.219,0.209,0.285,0.4,0.474,0.367,–,0.35,0.366,0.281,0.291,–,0.293,0.216,0.173,0.201,–,0.145
PC-3 [JPC-3],0.932,0.74,0.867,0.932,1.01,0.789,0.718,0.778,0.858,0.74,1.01,0.919,0.929,1.03,0.965,1.05,1.06,1.17,1.29,1.21
BEN,0.495,0.563,0.586,0.457,0.52,0.0634,0.062,0.0706,0.0643,0.0666,0.932,0.738,0.803,0.942,0.861,0.633,0.929,0.73,0.762,0.857
NCI-H1666,0.599,0.661,0.592,0.806,0.633,1.03,0.977,0.961,1.07,0.881,0.995,0.942,0.968,1,0.967,0.881,0.825,0.822,0.874,0.718
LC-2-ad,0.53,0.462,0.494,0.44,0.426,0.544,0.589,0.467,0.427,0.331,0.463,0.454,0.426,–,0.485,0.265,0.285,0.275,0.266,0.278
SK-LU-1,0.3,0.266,0.251,0.256,0.278,0.788,0.682,0.804,1.01,0.652,0.881,0.797,0.948,0.904,0.881,1.06,0.983,1.03,1.05,0.887
ChaGo-K-1,0.232,0.214,0.235,0.206,0.228,0.62,0.966,1.09,0.73,1.17,1.16,1.05,1.09,0.923,1.09,0.244,0.27,0.273,0.265,0.248
COR-L 105,0.343,0.355,0.369,0.27,0.328,1.01,1.04,0.64,0.899,0.569,0.745,0.942,0.688,0.72,0.921,1.03,1.19,0.954,0.912,1
NCI-H1975,0.801,0.682,0.791,0.905,0.739,1.12,1.34,1.03,1.09,1.01,1,0.967,0.93,0.924,0.876,0.284,0.284,0.281,0.288,0.32
NCI-H1993,0.559,0.522,0.546,0.508,0.572,0.943,0.878,0.919,1.1,1.13,0.888,0.874,0.833,0.743,0.903,0.527,0.628,0.677,0.598,0.637
RERF-LC-KJ,0.461,0.529,0.469,0.485,0.492,0.901,0.735,1.02,1.25,0.832,0.887,0.822,0.794,0.904,0.763,0.431,0.492,0.478,0.481,0.523
